Reference: the supplement of paper PMC10307832

Key:
Experiment in all cases: relative viability (nuclei count vs DMSO), 5 days (fraction); higher = more cells survive
[1] = compound: CCN1C(=O)C2=CC(=C(N=C2N(C1=O)C3CC3)N)C(=O)N + CC(C)C[C@H](NC(=O)[C@H](Cc1ccccc1)NC(=O)c1cnccn1)B(O)O [Bortezomib] (partner 0.002 µM)
Procedure, shortened: (§1)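 For relative viability, nuclei counts in treated wells were divided by those in vehicle wells. Lung cancer cell lines had been pin-tool dosed in 1536-well plates the day after seeding and cultured for 5 days, then fixed and stained in one step (final 0.05% Triton X-100, 1% formaldehyde, 1 ug/ml Hoechst) and imaged at 4×. Doses were one drug alone or a fixed anchor-drug dose plus five library-drug doses (not always all listed) in √10 steps, and values are duplicate-plate medians.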

[2] = compound: CCN1C(=O)C2=CC(=C(N=C2N(C1=O)C3CC3)N)C(=O)N + NC(=O)Nc1cc(-c2cccc(F)c2)sc1C(=O)N[C@H]1CCCNC1 [AZD7762] (partner 0.2 µM)
Procedure, shortened: as §1

[3] = compound: CCN1C(=O)C2=CC(=C(N=C2N(C1=O)C3CC3)N)C(=O)N + Nc1ncn([C@H]2C[C@H](O)[C@@H](CO)O2)c(=O)n1 [Decitabine] (partner 2 µM)
Procedure, shortened: as §1

[4] = compound: CCN1C(=O)C2=CC(=C(N=C2N(C1=O)C3CC3)N)C(=O)N + N=C(N)NC(=N)NCCc1ccccc1 [Phenformin] (partner 250 µM)
Procedure, shortened: as §1

[5] = compound: CCN1C(=O)C2=CC(=C(N=C2N(C1=O)C3CC3)N)C(=O)N + C[C@]1(O)C[C@@H](c2nc(-c3ccc4ccc(-c5ccccc5)nc4c3)c3c(N)nccn32)C1 [Linsitinib] (partner 1 µM)
Procedure, shortened: as §1

Row | Cell Line | relative viability ([1]; first compound 0.253 µM) | relative viability ([1]; first compound 0.8 µM) | relative viability ([1]; first compound 2.53 µM) | relative viability ([1]; first compound 8 µM) | relative viability ([2]; first compound 0.253 µM) | relative viability ([2]; first compound 0.8 µM) | relative viability ([2]; first compound 2.53 µM) | relative viability ([2]; first compound 8 µM) | relative viability ([3]; first compound 0.253 µM) | relative viability ([3]; first compound 0.8 µM) | relative viability ([3]; first compound 2.53 µM) | relative viability ([3]; first compound 8 µM) | relative viability ([4]; first compound 0.253 µM) | relative viability ([4]; first compound 0.8 µM) | relative viability ([4]; first compound 2.53 µM) | relative viability ([4]; first compound 8 µM) | relative viability ([5]; first compound 0.253 µM) | relative viability ([5]; first compound 0.8 µM) | relative viability ([5]; first compound 2.53 µM) | relative viability ([5]; first compound 8 µM)
1 | 201T | 1.1 | 1.07 | 1.09 | 1.05 | 0.609 | 0.677 | 0.64 | 0.615 | 0.866 | 0.81 | 0.814 | 0.844 | 0.478 | 0.474 | 0.442 | 0.47 | 1 | 0.991 | 0.952 | 1.01
2 | A549 | – | – | – | – | – | – | – | – | 0.215 | 0.341 | 0.218 | 0.11 | – | 0.22 | 0.155 | 0.155 | – | 0.605 | 0.505 | 0.516
3 | A-427 | 0.938 | 0.963 | 0.965 | 0.956 | 0.73 | 0.791 | 0.731 | 0.789 | 0.552 | 0.537 | 0.521 | 0.563 | 0.376 | 0.307 | 0.376 | 0.343 | 1.24 | 1.11 | 1.04 | 1.1
4 | ABC-1 | 0.298 | 0.325 | 0.312 | 0.266 | 0.479 | – | 1.15 | 0.954 | 0.996 | – | 1.17 | 1.05 | 0.24 | 0.22 | 0.274 | 0.25 | 0.825 | 0.989 | 0.72 | 0.876
5 | BEN | 0.951 | 0.68 | 1.1 | 0.697 | 0.789 | 0.568 | 0.864 | 0.689 | 0.814 | 0.675 | 0.734 | 0.657 | 0.251 | 0.273 | 0.264 | 0.284 | 0.961 | 0.92 | 0.919 | 0.954
6 | CAL-12T | 1.11 | – | 1.09 | 1.08 | 0.619 | 0.479 | 0.664 | 0.567 | – | – | – | – | 0.565 | 0.61 | 0.49 | 0.547 | 0.792 | 0.773 | 0.721 | 0.776
7 | COR-L23 | 1 | 0.944 | 1.12 | 0.95 | – | – | – | – | 0.442 | 0.467 | 0.428 | 0.375 | 0.429 | 0.442 | 0.435 | 0.423 | 0.89 | 0.9 | 0.776 | 1.03
8 | COR-L 105 | 0.866 | 0.709 | 0.856 | 0.738 | – | – | – | – | 0.712 | 0.657 | 0.597 | 0.785 | 0.452 | 0.391 | 0.498 | 0.379 | 1.12 | 1.04 | 0.945 | 0.939
9 | ChaGo-K-1 | 1.12 | 0.87 | 1.1 | 1.1 | 0.873 | 0.863 | 0.89 | 0.872 | 0.529 | 0.555 | 0.489 | 0.449 | 0.485 | 0.446 | 0.561 | 0.472 | – | – | – | –
10 | EKVX | 1.18 | 1.14 | 1.07 | 0.901 | 0.824 | 0.701 | 0.749 | 0.698 | 0.352 | 0.33 | 0.352 | 0.296 | 0.256 | 0.248 | 0.316 | 0.231 | 1.03 | 1.03 | 0.934 | 0.998
11 | EMC-BAC-2 | 1.12 | 1.04 | 0.9 | 1.06 | 1.18 | – | 1.04 | 1.14 | 1.05 | – | 0.89 | 0.94 | 0.597 | 0.478 | 0.478 | 0.56 | 0.848 | 0.837 | 0.754 | 0.888
12 | EPLC-272H | 0.828 | 0.75 | 0.827 | 1 | 0.229 | 0.206 | 0.278 | 0.193 | 0.362 | 0.376 | 0.399 | 0.379 | 0.322 | 0.32 | 0.357 | 0.32 | 1.18 | 1.28 | 1.37 | 1.36
13 | H3255 | 0.866 | 0.565 | 0.934 | 0.706 | 0.884 | 0.922 | 0.919 | 0.832 | 0.582 | 0.582 | 0.61 | 0.604 | 0.427 | 0.306 | 0.315 | 0.359 | 0.879 | 0.908 | 0.835 | 1.03
14 | HARA | 1.18 | 1.12 | 1.11 | 1.15 | 0.661 | 0.304 | 0.296 | 0.315 | 0.473 | 0.587 | 0.402 | 0.721 | 0.433 | 0.478 | 0.414 | 0.401 | 0.971 | 0.942 | 0.829 | 0.94
15 | IA-LM | 0.826 | 0.702 | 0.807 | 0.817 | – | – | – | – | – | – | – | – | – | – | – | – | 0.629 | 0.618 | 0.492 | 0.553
